Reference: patent publication US9902696B2, “1,4-substituted piperidine derivatives” (Cephalon, Inc., priority 2015, dated 2018)
Where a name gives a salt, the structure may show the parent alone.

Target: T1, recombinant human baculovirus-expressed GST-tagged FASN (Homo sapiens, UniProt P49327)
T1 construct: GST
Test: FASN enzyme activity assay, fluorescence-based detection of CoA with CPM
Format: biochemical
Conditions: 5 nM FASN, 150 μM NADPH, 10 μM acetyl-CoA, 25 μM malonyl-CoA, 90 minutes incubation; read-out: IC50 data for Additional Compounds of Formulae I-V(a): Activity
How it was run: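 Human GST-tagged FASN, baculovirus-expressed (5 nM), in 50 mM HEPES pH 7.5 with 150 μM NADPH, 10 μM acetyl-CoA, 25 μM malonyl-CoA, 0.5% DMSO; malonyl-CoA-started, 90 min. Released CoA detected with CPM (50 μM dilution), 30 min, fluorescence ex 390/em 530. IC50 from variable-slope sigmoidal fit of % inhibition versus log concentration.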

T1 sequence (P49327 whole entry): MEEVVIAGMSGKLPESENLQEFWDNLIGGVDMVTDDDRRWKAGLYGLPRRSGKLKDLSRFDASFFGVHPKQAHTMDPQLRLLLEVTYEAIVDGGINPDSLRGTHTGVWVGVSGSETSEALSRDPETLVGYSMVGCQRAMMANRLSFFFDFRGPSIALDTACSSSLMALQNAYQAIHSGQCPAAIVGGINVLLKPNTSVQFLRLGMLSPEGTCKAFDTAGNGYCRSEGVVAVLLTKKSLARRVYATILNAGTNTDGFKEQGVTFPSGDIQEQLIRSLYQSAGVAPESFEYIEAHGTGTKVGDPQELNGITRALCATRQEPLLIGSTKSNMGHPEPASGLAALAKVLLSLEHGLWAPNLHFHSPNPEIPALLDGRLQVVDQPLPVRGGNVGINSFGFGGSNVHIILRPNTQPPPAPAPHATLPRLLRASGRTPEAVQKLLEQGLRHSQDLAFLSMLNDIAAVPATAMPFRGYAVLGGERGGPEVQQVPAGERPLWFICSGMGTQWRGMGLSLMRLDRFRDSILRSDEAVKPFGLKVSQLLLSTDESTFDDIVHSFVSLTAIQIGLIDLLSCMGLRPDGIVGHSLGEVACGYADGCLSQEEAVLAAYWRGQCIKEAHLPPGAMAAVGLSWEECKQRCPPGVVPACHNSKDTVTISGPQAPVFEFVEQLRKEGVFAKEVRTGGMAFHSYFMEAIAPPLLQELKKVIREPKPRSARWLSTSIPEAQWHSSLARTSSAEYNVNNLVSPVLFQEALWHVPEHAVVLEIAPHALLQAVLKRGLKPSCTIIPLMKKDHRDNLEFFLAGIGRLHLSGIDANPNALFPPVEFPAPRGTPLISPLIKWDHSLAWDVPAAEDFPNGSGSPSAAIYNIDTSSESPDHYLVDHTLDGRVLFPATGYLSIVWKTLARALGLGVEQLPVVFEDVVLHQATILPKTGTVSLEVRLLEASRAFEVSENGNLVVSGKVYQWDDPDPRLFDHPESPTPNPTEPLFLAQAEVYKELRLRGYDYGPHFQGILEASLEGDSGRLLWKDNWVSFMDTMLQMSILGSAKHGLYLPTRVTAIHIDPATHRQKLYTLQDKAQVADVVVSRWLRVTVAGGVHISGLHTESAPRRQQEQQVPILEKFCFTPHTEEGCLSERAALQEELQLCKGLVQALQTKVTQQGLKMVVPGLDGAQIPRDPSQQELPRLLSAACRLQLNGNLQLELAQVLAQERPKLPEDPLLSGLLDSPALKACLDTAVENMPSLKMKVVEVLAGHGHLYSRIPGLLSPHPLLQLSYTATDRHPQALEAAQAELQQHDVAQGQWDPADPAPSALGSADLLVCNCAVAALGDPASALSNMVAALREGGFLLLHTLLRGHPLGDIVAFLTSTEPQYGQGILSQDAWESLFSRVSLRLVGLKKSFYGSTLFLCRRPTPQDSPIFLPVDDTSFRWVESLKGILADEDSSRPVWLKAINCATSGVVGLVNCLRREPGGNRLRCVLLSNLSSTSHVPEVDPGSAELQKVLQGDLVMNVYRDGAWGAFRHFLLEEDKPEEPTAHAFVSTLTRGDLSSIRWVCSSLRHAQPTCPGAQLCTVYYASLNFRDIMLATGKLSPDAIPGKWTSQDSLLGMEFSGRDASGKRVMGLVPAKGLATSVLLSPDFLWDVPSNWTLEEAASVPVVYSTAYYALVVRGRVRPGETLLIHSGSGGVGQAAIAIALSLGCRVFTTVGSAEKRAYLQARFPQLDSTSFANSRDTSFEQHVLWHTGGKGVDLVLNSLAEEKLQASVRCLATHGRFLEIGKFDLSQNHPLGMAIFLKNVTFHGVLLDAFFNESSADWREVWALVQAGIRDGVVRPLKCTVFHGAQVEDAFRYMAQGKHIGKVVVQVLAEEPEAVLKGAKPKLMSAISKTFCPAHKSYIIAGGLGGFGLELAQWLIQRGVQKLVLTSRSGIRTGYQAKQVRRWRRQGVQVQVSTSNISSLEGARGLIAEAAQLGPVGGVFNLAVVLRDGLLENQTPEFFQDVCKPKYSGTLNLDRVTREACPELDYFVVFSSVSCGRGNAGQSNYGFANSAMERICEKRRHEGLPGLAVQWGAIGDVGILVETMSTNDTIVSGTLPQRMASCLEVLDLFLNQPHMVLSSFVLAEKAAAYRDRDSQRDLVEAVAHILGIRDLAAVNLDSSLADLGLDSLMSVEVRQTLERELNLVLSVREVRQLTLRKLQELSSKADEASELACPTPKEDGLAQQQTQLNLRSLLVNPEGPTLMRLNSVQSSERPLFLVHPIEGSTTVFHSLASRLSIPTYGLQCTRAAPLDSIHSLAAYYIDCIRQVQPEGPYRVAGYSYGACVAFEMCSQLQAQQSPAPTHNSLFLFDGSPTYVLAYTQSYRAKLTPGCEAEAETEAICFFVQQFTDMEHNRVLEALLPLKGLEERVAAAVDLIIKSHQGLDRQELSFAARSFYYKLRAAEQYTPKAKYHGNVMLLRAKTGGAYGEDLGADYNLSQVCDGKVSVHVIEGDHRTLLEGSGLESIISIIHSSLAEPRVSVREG

| Compound | IC50 [nM] |
| --- | --- |
| Cc1c(-c2ccc(OC3CCN(C(=O)NCC(F)(F)F)CC3)cc2)ccc2nccn12 [Example 606, 4-[4-(5-Methylimidazo[1,2-a]pyridin-6-yl)phenoxy]-N-(2,2,2-trifluoro-ethyl)piperidine-1-carboxamide] | 1000 to 10000 |
| Cc1c(-c2ccc(OC3CCN(C(=O)NCC(C)C)CC3)cc2)ccn2ccnc12 [Example 632, N-Isobutyl-4-[4-(8-methylimidazo[1,2-a]pyridin-7-yl)phenoxy]piperidine-1-carboxamide] | 1 to 99 |

The next lines start with the values.

| IC50 [nM] | Compound |
| --- | --- |
| 1000 to 10000 | Cc1c(-c2ccc(OC3CCN(C(=O)N4CCN(C)CC4)CC3)cc2)ccc2cccnc12 [Example 533, (4-Methyllpiperazin-1-yl)-[4-[4-(8-methyl-7-quinolyl)phenoxy]-1-piperidyl]methanone, HCl] |
| 1 to 99 | COCCNC(=O)N1CCC(Oc2ccc(-c3ccc4cccnc4c3C)cc2)CC1 [Example 542, N-(2-Methoxyethyl)-4-[4-(8-methyl-7-quinolyl)phenoxy]piperidine-1-carboxamide HCl] |
| 1 to 99 | CCCNC(=O)N1CCC(Oc2ccc(-c3ccn4ccnc4c3C)cc2)CC1 [Example 631, 4-[4-(8-Methylimidazo[1,2-a]pyridin-7-yl)phenoxy]-N-propyl-piperidine-1-carboxamide, HCl] |
| 1000 to 10000 | C=CCOC(=O)N1CCC(Oc2ccc(-c3ccc4cccnc4c3C)cc2)CC1 [Example 551, Allyl 4-[4-(8-methyl-7-quinolyl)phenoxy]piperidine-1-carboxylate, HCl] |

Same assay, conditions: 5 nM FASN, 150 μM NADPH, 10 μM acetyl-CoA, 25 μM malonyl-CoA, 90 minutes incubation; read-out: IC50 data for Compounds of Formulae I-V/V(a): Activity

| Compound | IC50 [nM] |
| --- | --- |
| O=C([C@H]1CCCO1)N1CCC(Oc2ccc(-c3ccc4cnccc4c3)cc2)CC1 [Example 467, [4-[4-(6-Isoquinolyl)phenoxy]-1-piperidyl]-[(2R)-tetrahydrofuran-2-yl]-methanone HCl] | 1 to 99 |
| O=C([C@H]1CCCO1)N1CCC(Oc2ccc(-c3ccc4c(N5CCOCC5)nccc4c3)cc2)CC1 [Example 452, {4-[4-(1-Morpholin-4-yl-isoquinolin-6-yl)-phenoxy]-piperidin-1-yl}-(R)-tetrahydrofuran-2-yl-methanone] | 1 to 99 |
| CC(C)C(=O)N1CCC(S(=O)(=O)c2ccc(-c3ccc4cnccc4c3)cc2)CC1 [Example 514, 1-[4-(4-Isoquinolin-6-yl-benzenesulfonyl)-piperidin-1-yl]-2-methyl-propan-1-one] | 1000 to 10000 |
| CC(C)C(=O)N1CCC(Oc2ccc(-c3ccc4cccnc4c3)nc2)CC1 [Example 145, 2-Methyl-1-[4-(6-quinolin-7-yl-pyridin-3-yloxy)-piperidin-1-yl]-propan-1-one, 2HCl] | 1000 to 10000 |
| O=C(C1CCC1)N1CCC(Oc2ccc(-c3ccc4c(Cl)nccc4c3)cc2)CC1 [Example 428, {4-[4-(1-Chloroisoquinolin-6-yl)-phenoxy]-piperidin-1-yl}-cyclobutyl-methanone] | 100 to 999 |
| CCC(=O)N1CCC(Oc2ccc(-c3ccc4cccnc4c3C#N)cc2)CC1 [Example 330, 7-[4-(1-Propionyl-piperidin-4-yloxy)-phenyl]-quinoline-8-carbonitrile] | 100 to 999 |
| O=C(C1CC1)N1CCC(Oc2ccc(-c3cnc4ccccc4c3)c(Cl)c2)CC1 [Example 205, [4-(3-Chloro-4-quinolin-3-yl-phenoxy)-piperidin-1-yl]-cyclopropyl-methanone] | 1 to 99 |
| CCC(=O)N1CCC(Sc2ccc(-c3cncc4ccccc34)cc2)CC1 [Example 519, 1-(4-((4-(Isoquinolin-4-yl)phenyl)thio)piperidin-1-yl)propan-1-one, HCl] | 1000 to 10000 |
| CCC(=O)N1CCC(Oc2ccc(-c3cnc4ccccc4c3)c(Cl)c2)CC1 [Example 203, 1-[4-(3-Chloro-4-quinolin-3-yl-phenoxy)-piperidin-1-yl]-propan-1-one] | 1 to 99 |
| O=C(c1ccco1)N1CCC(Oc2ccc(-c3cnc4ccccc4c3)cc2)CC1 [Example 111, HCl] | 1000 to 10000 |
| COc1c(-c2ccc(OC3CCN(C(=O)C4CC4)CC3)cc2)ccc2cccnc12 [Example 274, Cyclopropyl-{4-[4-(8-methoxyquinolin-7-yl)-phenoxy]-piperidin-1-yl}-methanone, HCl] | 1 to 99 |
| O=C(C1CC1)N1CCC(Oc2ccc(-c3cnc4ccccc4c3)cn2)CC1 [Example 134, Cyclopropyl-[4-(5-quinolin-3-yl-pyridin-2-yloxy)-piperidin-1-yl]-methanone, HCl] | 1000 to 10000 |
| O=C(C1CC1)N1CCC(Oc2ccc(-c3ccc4ccccc4n3)cc2)CC1 [Example 39, Cyclopropyl-[4-(4-quinolin-2-yl-phenoxy)-piperidin-1-yl]-methanone] | 100 to 999 |
| CN1CCN(CCOc2c(-c3ccc(OC4CCN(C(=O)[C@H]5CCCO5)CC4)cc3)ccc3cccnc23)CC1 [Example 185, [4-[4-[8-[2-(4-Methylpiperazin-1-yl)ethoxy]-7-quinolyl]phenoxy]-1-piperidyl]-[(2R)-tetrahydrofuran-2-yl]methanone, HCl] | 100 to 999 |
| CCC(=O)N1CCC(Oc2ccc(-c3cnc4ccccc4c3C)cc2F)CC1 [Example 228, 1-{4-[2-Fluoro-4-(4-methylquinolin-3-yl)-phenoxy]-piperidin-1-yl}-propan-1-one] | 100 to 999 |
| CCC(=O)N1CCC(Oc2ccc(-c3cnc4ccccc4c3N3CCN(C)CC3)cc2)CC1 [Example 239, 1-(4-{4-[4-(4-Methylpiperazin-1-yl)-quinolin-3-yl]-phenoxy}-piperidin-1-yl)-propan-1-one] | 1000 to 10000 |
| CCC(=O)N1CCC(Oc2ccc(-c3cnc4cc(OC)ccc4c3)cc2)CC1 [Example 35, 1-{4-[4-(7-Methoxyquinolin-3-yl)-phenoxy]-piperidin-1-yl}-propan-1-one] | 1 to 99 |
| Cc1c(-c2ccc(OC3CCN(C(=O)C4CC(F)(F)CO4)CC3)cc2)ccc2cccnc12 (stereo not shown) [Example 164] | 100 to 999 |
| O=C([C@H]1CCCO1)N1CCC(Oc2ccc(-c3ccc4nccn4c3Cl)cc2)CC1 [Example 294, {4-[4-(5-Chloroimidazo[1,2-a]pyridin-6-yl)-phenoxy]-piperidin-1-yl}-(R)-tetrahydrofuran-2-yl-methanone] | 1000 to 10000 |

Second part, the compound after the results:

| IC50 [nM] | Compound |
| --- | --- |
| 1000 to 10000 | CCC(=O)N1CCC(Oc2ccc(-c3ccc4nc(C)c(C)n4c3)cc2)CC1 [Example 290, 1-{4-[4-(2,3-Dimethylimidazo[1,2-a]pyridin-6-yl)-phenoxy]-piperidin-1-yl}-propan-1-one] |
| 1000 to 10000 | CCC(=O)N1CCC(Oc2ccc(-c3ccnc(-c4ccccc4)c3)cc2)CC1 [Example 402, 1-{4-[4-(2-Phenylpyridin-4-yl)-phenoxy]-piperidin-1-yl}-propan-1-one, TFA] |
| 1 to 99 | CCONC(=O)N1CCC(Oc2ccc(-c3ccc4cccnc4c3C)cc2)CC1 [Example 93, N-ethoxy-4-[4-(8-methyl-7-quinolyl)phenoxy]piperidine-1-carboxamide] |
| 1000 to 10000 | O=C(C1CC1)N1CCC(Oc2ccc(-c3ccnc(-c4ccccc4)c3)cc2)CC1 [Example 403, Cyclopropyl-{4-[4-(2-phenylpyridin-4-yl)-phenoxy]-piperidin-1-yl}-methanone, TFA salt] |
| 1 to 99 | Cc1nccc2c(C)c(-c3ccc(OC4CCN(C(=O)[C@H]5CCCO5)CC4)cc3)ccc12 [Example 474, [4-[4-(1,5-Dimethyl-6-isoquinolyl)phenoxy]-1-piperidyl]-[(2R)-tetrahydrofuran-2-yl]methanone, HCl] |
| 1 to 99 | CCc1cc2cc(-c3ccc(OC4CCN(C(=O)[C@H]5CCCO5)CC4)cc3)ccc2cn1 [Example 476, {4-[4-(3-Ethylisoquinolin-6-yl)-phenoxy]-piperidin-1-yl}-(R)-tetrahydro-furan-2-yl-methanone] |
| 1000 to 10000 | O=C(C1CC1)N1CCC(Oc2ccc(-c3cnc4ccoc4c3)cc2)CC1 [Example 52, Cyclopropyl-[4-(4-furo[3,2-b]pyridin-6-yl-phenoxy)-piperidin-1-yl]-methanone] |
| 100 to 999 | CCC(=O)N1CCC(Oc2ccc(-c3ccc4occc4c3)cc2)CC1 [Example 8, 1-[4-(4-Benzofuran-5-yl-phenoxy)-piperidin-1-yl]-propan-1-one] |
| 1 to 99 | O=C(C1OCCO1)N1CCC(Oc2ccc(-c3cnc4ccccc4c3)cc2)CC1 [Example 152, HCl] |
| 1000 to 10000 | Cc1ccc2ccc(-c3ccc(OC4CCN(C(=O)C5CCC5)CC4)cc3)c(F)c2n1 [Example 27, Cyclobutyl-{4-[4-(8-fluoro-2-methylquinolin-7-yl)-phenoxy]-piperidin-1-yl}-methanone] |
| 1 to 99 | COc1c(-c2ccc(OC3CCN(C(=O)C4(O)CC4)CC3)cc2)ccc2cccnc12 [Example 303, (1-Hydroxycyclopropyl)-{4-[4-(8-methoxy-quinolin-7-yl)-phenoxy]-piperidin-1-yl}-methanone] |
| 1000 to 10000 | CC(=O)CC(=O)N1CCC(Oc2ccc(-c3cnc4ccccc4c3)cc2)CC1 [Example 242, 1-[4-(4-Quinolin-3-yl-phenoxy)-piperidin-1-yl]-butane-1,3-dione] |
| 1 to 99 | Cc1c(-c2ccc(OC3CCN(C(=O)[C@H]4CCCO4)CC3)c(F)c2)cnc2ccccc12 [Example 230, {4-[2-Fluoro-4-(4-methylquinolin-3-yl)-phenoxy]-piperidin-1-yl}-(R)-tetrahydrofuran-2-yl-methanone] |
| 1 to 99 | O=C(C1CC1)N1CCC(Oc2ccc(-c3ccc4cnccc4c3)cc2)CC1 [Example 466, Cyclopropyl-[4-(4-isoquinolin-6-yl-phenoxy)-piperidin-1-yl]-methanone] |
| 1 to 99 | O=C(C1CC1)N1CCC(Oc2ccc(-c3cnc4cc(F)ccc4c3)cc2)CC1 [Example 477, Cyclopropyl-{4-[4-(7-fluoroquinolin-3-yl)-phenoxy]-piperidin-1-yl}-methanone] |
